According to ChEMBL document CHEMBL3046839, “Six insecticidal isoryanodane diterpenoids from the bark and twigs of Itoa orientalis” (2008):
In brackets after ≈: the same amount, converted by molar mass. Activity calls are given as the source filed them. No cut-off for these calls is given here.

Assays:
Spodoptera exigua [1] = test: Insecticidal activity against Spodoptera exigua larvae reared on artificial diet assessed as mortality rate at 55.64 ppm after 72 hr; assay type: functional
Spodoptera exigua [2] = test: Insecticidal activity against Spodoptera exigua larvae reared on artificial diet assessed as mortality rate at 72.68 ppm after 72 hr; assay type: functional
Spodoptera exigua [3] = test: Insecticidal activity against Spodoptera exigua larvae reared on artificial diet assessed as mortality rate after 72 hr; assay type: functional; conditions: for LC50: Spodoptera exigua, 72 h
Spodoptera exigua [4] = test: Insecticidal activity against Spodoptera exigua larvae reared on artificial diet assessed as mortality rate at 95.65 ppm after 72 hr; assay type: functional
Helicoverpa armigera = test: Insecticidal activity against Heliothis armigera larvae reared on artificial diet assessed as growth inhibition after 72 hr; assay type: functional, organism-based
Spodoptera exigua [5] = test: Insecticidal activity against Spodoptera exigua larvae reared on artificial diet assessed as mortality rate at 31.56 ppm after 72 hr; assay type: functional
Spodoptera exigua [6] = test: Insecticidal activity against Spodoptera exigua larvae reared on artificial diet assessed as mortality rate at 42.08 ppm after 72 hr; assay type: functional
KB = test: Cytotoxicity against Homo sapiens (human) KB cells at 10 uM by MTT assay; assay type: functional, cell-based
HL-60 = test: Cytotoxicity against Homo sapiens (human) HL60 cells at 10 uM by MTT assay; assay type: functional, cell-based
BGC-823 = test: Cytotoxicity against Homo sapiens (human) BGC823 cells at 10 uM by MTT assay; assay type: functional, cell-based
Bel-7402 = test: Cytotoxicity against Homo sapiens (human) Bel7402 cells at 10 uM by MTT assay; assay type: functional, cell-based
Spodoptera exigua [7] = test: Insecticidal activity against Spodoptera exigua larvae reared on artificial diet assessed as mortality rate at 56.19 ppm after 72 hr; assay type: functional
Spodoptera exigua [8] = test: Insecticidal activity against Spodoptera exigua larvae reared on artificial diet assessed as mortality rate at 73.63 ppm after 72 hr; assay type: functional
Spodoptera exigua [9] = test: Insecticidal activity against Spodoptera exigua larvae reared on artificial diet assessed as mortality rate at 32 ppm after 72 hr; assay type: functional
Spodoptera exigua [10] = test: Insecticidal activity against Spodoptera exigua larvae reared on artificial diet assessed as mortality rate at 96.88 ppm after 72 hr; assay type: functional
Spodoptera exigua [11] = test: Insecticidal activity against Spodoptera exigua larvae reared on artificial diet assessed as mortality rate at 42.63 ppm after 72 hr; assay type: functional

Row | Structure (SMILES) | mortality at 55.64 ppm (Spodoptera exigua [1]) [%] | mortality at 72.68 ppm (Spodoptera exigua [2]) [%] | LC90 (Spodoptera exigua [3]) [µg/mL] | LC50 (Spodoptera exigua [3]) [µg/mL] | mortality at 95.65 ppm (Spodoptera exigua [4]) [%] | growth inhibition (GI) (Helicoverpa armigera) | mortality at 31.56 ppm (Spodoptera exigua [5]) [%] | mortality at 42.08 ppm (Spodoptera exigua [6]) [%] | Activity (KB) | Activity (HL-60) | Activity (BGC-823) | Activity (Bel-7402) | mortality at 56.19 ppm (Spodoptera exigua [7]) [%] | mortality at 73.63 ppm (Spodoptera exigua [8]) [%] | mortality at 32 ppm (Spodoptera exigua [9]) [%] | mortality at 96.88 ppm (Spodoptera exigua [10]) [%] | mortality at 42.63 ppm (Spodoptera exigua [11]) [%]
1 | CC(CO)[C@@]1(O)[C@H](O)[C@@H]2[C@@]3(O)[C@@H]4O[C@@](O)(C[C@@]2(C)[C@@]2(O)CC[C@@H](C)[C@@H]42)[C@]31C (stereo partly specified) [ITOL B] | 59 | 69 | 131.7 (≈ 343 µM) | 52.8 (≈ 137 µM) | 77 | inactive | 26 | 31 | – | – | – | – | – | – | – | – | –
2 | CC(C)[C@@]1(O)[C@H](O[C@@H]2O[C@H](CO)[C@@H](O)[C@H](O)[C@H]2O)[C@@H]2[C@@]3(O)[C@@H]4O[C@@](O)(C[C@@]2(C)[C@@]2(O)CC[C@@H](C)[C@@H]42)[C@]31C | – | – | – | – | – | inactive | – | – | inactive | inactive | inactive | inactive | – | – | – | – | –
3 | CC(C)[C@@]1(O)[C@H](O)[C@@H]2[C@@]3(O)[C@@H]4O[C@@](O)(C[C@@]2(C)[C@@]2(O)CC[C@@H](C)[C@@H]42)[C@]31C [ITOL A] | – | – | 67.68 (≈ 184 µM) | 28.6 (≈ 77.7 µM) | – | inactive | – | – | inactive | inactive | inactive | inactive | 83 | 94 | 56 | 96 | 73
4 | C[C@@H]1CC[C@@]2(O)[C@@H]1[C@H]1O[C@@]3(O)C[C@]2(C)[C@@H]2[C@@H](O)[C@](O)(C(C)(C)O)[C@@]3(C)[C@]12O | – | – | – | – | – | inactive | – | – | inactive | inactive | inactive | inactive | – | – | – | – | –
5 | CC(C)[C@@]1(O)[C@H](O)[C@@H]2[C@@]3(O)[C@@H]4O[C@@](O)(C[C@@]2(C)[C@@]2(O)CC[C@](C)(O)[C@@H]42)[C@]31C | – | – | – | – | – | inactive | – | – | – | – | – | – | – | – | – | – | –
6 | CC(CO[C@@H]1O[C@H](CO)[C@@H](O)[C@H](O)[C@H]1O)[C@@]1(O)[C@H](O)[C@@H]2[C@@]3(O)[C@@H]4O[C@@](O)(C[C@@]2(C)[C@@]2(O)CC[C@@H](C)[C@@H]42)[C@]31C (stereo partly specified) | – | – | – | – | – | inactive | – | – | inactive | inactive | inactive | inactive | – | – | – | – | –
